PMC11465415, “Characterization of conformational states of the homodimeric enzyme fluoroacetate dehalogenase by ^19F–^13C two-dimensional NMR” (RSC Chemical Biology, 2024)

Molecular target: T1, fluoroacetate dehalogenase (FAcD) (Rhodopseudomonas palustris, UniProt Q6NAM1)
T1 construct: gene RPA1163; 300-residue homodimer expressed in E. coli BL21; all Trp replaced biosynthetically by 5-fluoro-(phenyl-13C6)-L-tryptophan; 9 Trp per protomer
Assay: […]-13C TROSY HSQC and 1D […] NMR
Type: binding
Conditions: 50 °C; enzyme saturated with bromoacetate; 5-fluorotryptophan-labelled enzyme; active site; unreacted substrate analogue

T1 sequence (Q6NAM1 whole entry): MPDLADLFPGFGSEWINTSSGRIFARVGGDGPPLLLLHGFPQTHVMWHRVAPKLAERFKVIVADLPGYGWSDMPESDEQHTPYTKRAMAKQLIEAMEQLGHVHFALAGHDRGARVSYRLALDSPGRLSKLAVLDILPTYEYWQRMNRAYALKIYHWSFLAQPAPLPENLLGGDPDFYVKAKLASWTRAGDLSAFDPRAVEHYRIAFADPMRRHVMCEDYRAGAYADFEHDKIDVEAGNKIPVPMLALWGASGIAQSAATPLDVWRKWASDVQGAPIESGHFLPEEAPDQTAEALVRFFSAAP

O=C(O)CBr [bromoacetate]
19F-13C TROSY HSQC and 1D 19F NMR: The addition of BrAc is also observed to result in a pronounced shift for W185
